Source: PubChem BioAssay (NCI)
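How tested: cells in 96-well plates exposed to compound for 48 hours at five concentrations. Definition used: TGI = concentration required for complete inhibition of growth.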

Columns and labels:
Assay in all cases: DTP human tumour cell line panel, 48 h
786-0 renal = test system: 786-0 renal
A498 renal = test system: A498 renal
A549 NSCLC = test system: A549 NSCLC
ACHN renal = test system: ACHN renal
BT-549 breast = test system: BT-549 breast
CAKI-1 renal = test system: CAKI-1 renal
CCRF-CEM leukemia = test system: CCRF-CEM leukemia
COLO 205 colon = test system: COLO 205 colon
DU-145 prostate = test system: DU-145 prostate
EKVX NSCLC = test system: EKVX NSCLC
HCC-2998 colon = test system: HCC-2998 colon
HCT-116 colon = test system: HCT-116 colon
HCT-15 colon = test system: HCT-15 colon
HL-60(TB) leukemia = test system: HL-60(TB) leukemia
HOP-62 NSCLC = test system: HOP-62 NSCLC
HOP-92 NSCLC = test system: HOP-92 NSCLC
HS 578T breast = test system: HS 578T breast
HT29 colon = test system: HT29 colon
IGROV1 ovarian = test system: IGROV1 ovarian
K-562 leukemia = test system: K-562 leukemia
KM12 colon = test system: KM12 colon
LOX IMVI melanoma = test system: LOX IMVI melanoma
M14 melanoma = test system: M14 melanoma
MALME-3M melanoma = test system: MALME-3M melanoma
MCF7 breast = test system: MCF7 breast
MDA-MB-231 breast = test system: MDA-MB-231 breast
MDA-MB-435 = test system: MDA-MB-435
MDA-N = test system: MDA-N
MOLT-4 leukemia = test system: MOLT-4 leukemia
NCI-H226 lung = test system: NCI-H226 lung
NCI-H23 lung = test system: NCI-H23 lung
NCI-H460 lung = test system: NCI-H460 lung
NCI-H522 lung = test system: NCI-H522 lung
NCI/ADR-RES ovarian = test system: NCI/ADR-RES ovarian
OVCAR-3 ovarian = test system: OVCAR-3 ovarian
OVCAR-4 ovarian = test system: OVCAR-4 ovarian
OVCAR-5 ovarian = test system: OVCAR-5 ovarian
OVCAR-8 ovarian = test system: OVCAR-8 ovarian
PC-3 prostate = test system: PC-3 prostate
RPMI-8226 leukemia = test system: RPMI-8226 leukemia
RXF 393 renal = test system: RXF 393 renal
SF-295 CNS = test system: SF-295 CNS
SF-539 CNS = test system: SF-539 CNS
SK-MEL-2 melanoma = test system: SK-MEL-2 melanoma
SK-MEL-5 melanoma = test system: SK-MEL-5 melanoma
SK-OV-3 ovarian = test system: SK-OV-3 ovarian
SN12C renal = test system: SN12C renal
SNB-19 CNS = test system: SNB-19 CNS
SNB-75 CNS = test system: SNB-75 CNS
SR leukemia = test system: SR leukemia
SW-620 colon = test system: SW-620 colon
T-47D breast = test system: T-47D breast
TK-10 renal = test system: TK-10 renal
U251 CNS = test system: U251 CNS
UACC-257 melanoma = test system: UACC-257 melanoma
UACC-62 melanoma = test system: UACC-62 melanoma
UO-31 renal = test system: UO-31 renal
SF-268 CNS = test system: SF-268 CNS
SK-MEL-28 melanoma = test system: SK-MEL-28 melanoma

CCCCc1ccc(Nc2nc(=S)c3ncn(COCCO)c3[nH]2)cc1
TGI (786-0 renal): > 100 µM | TGI (A498 renal): > 100 µM | TGI (A549 NSCLC): > 100 µM | TGI (ACHN renal): > 100 µM | TGI (BT-549 breast): > 100 µM | TGI (CAKI-1 renal): > 100 µM | TGI (CCRF-CEM leukemia): 59.7 µM | TGI (COLO 205 colon): 44.5 µM | TGI (DU-145 prostate): > 100 µM | TGI (EKVX NSCLC): > 100 µM | TGI (HCC-2998 colon): > 100 µM | TGI (HCT-116 colon): > 100 µM | TGI (HCT-15 colon): > 100 µM | TGI (HL-60(TB) leukemia): 54.4 µM | TGI (HOP-62 NSCLC): > 100 µM | TGI (HOP-92 NSCLC): 63.4 µM | TGI (HS 578T breast): > 100 µM | TGI (HT29 colon): > 100 µM | TGI (IGROV1 ovarian): > 100 µM | TGI (K-562 leukemia): 51.7 µM | TGI (KM12 colon): > 100 µM | TGI (LOX IMVI melanoma): 76.1 µM | TGI (M14 melanoma): > 100 µM | TGI (MALME-3M melanoma): 47.1 µM | TGI (MCF7 breast): 54.1 µM | TGI (MDA-MB-231 breast): 57.6 µM | TGI (MDA-MB-435): > 100 µM | TGI (MDA-N): > 100 µM | TGI (MOLT-4 leukemia): > 100 µM | TGI (NCI-H226 lung): > 100 µM | TGI (NCI-H23 lung): > 100 µM | TGI (NCI-H460 lung): > 100 µM | TGI (NCI-H522 lung): 51.3 µM | TGI (NCI/ADR-RES ovarian): > 100 µM | TGI (OVCAR-3 ovarian): 74.4 µM | TGI (OVCAR-4 ovarian): > 100 µM | TGI (OVCAR-5 ovarian): > 100 µM | TGI (OVCAR-8 ovarian): > 100 µM | TGI (PC-3 prostate): > 100 µM | TGI (RPMI-8226 leukemia): 54 µM | TGI (RXF 393 renal): > 100 µM | TGI (SF-295 CNS): > 100 µM | TGI (SF-539 CNS): > 100 µM | TGI (SK-MEL-2 melanoma): 90.4 µM | TGI (SK-MEL-5 melanoma): > 100 µM | TGI (SK-OV-3 ovarian): > 100 µM | TGI (SN12C renal): > 100 µM | TGI (SNB-19 CNS): > 100 µM | TGI (SNB-75 CNS): 97.9 µM | TGI (SR leukemia): 66.7 µM | TGI (SW-620 colon): > 100 µM | TGI (T-47D breast): 46.8 µM | TGI (TK-10 renal): > 100 µM | TGI (U251 CNS): > 100 µM | TGI (UACC-257 melanoma): > 100 µM | TGI (UACC-62 melanoma): > 100 µM | TGI (UO-31 renal): > 100 µM

COc1ccc(OC)c(N2C(=O)/C(=C\c3ccccc3)SC2c2cc(OC)c(OC)c(OC)c2)c1 (stereo not drawn)
TGI (786-0 renal): > 100 µM | TGI (A498 renal): > 100 µM | TGI (A549 NSCLC): > 100 µM | TGI (ACHN renal): 6.85 µM | TGI (BT-549 breast): > 100 µM | TGI (CAKI-1 renal): > 100 µM | TGI (CCRF-CEM leukemia): > 100 µM | TGI (COLO 205 colon): > 100 µM | TGI (DU-145 prostate): > 100 µM | TGI (EKVX NSCLC): > 100 µM | TGI (HCC-2998 colon): > 100 µM | TGI (HCT-116 colon): > 100 µM | TGI (HCT-15 colon): > 100 µM | TGI (HL-60(TB) leukemia): > 100 µM | TGI (HOP-62 NSCLC): > 100 µM | TGI (HOP-92 NSCLC): > 100 µM | TGI (HS 578T breast): > 100 µM | TGI (HT29 colon): > 100 µM | TGI (IGROV1 ovarian): > 100 µM | TGI (K-562 leukemia): > 100 µM | TGI (KM12 colon): > 100 µM | TGI (LOX IMVI melanoma): > 100 µM | TGI (M14 melanoma): > 100 µM | TGI (MALME-3M melanoma): > 100 µM | TGI (MCF7 breast): > 42.7 µM | TGI (MDA-MB-231 breast): > 100 µM | TGI (MDA-MB-435): > 75 µM | TGI (MDA-N): 52.1 µM | TGI (MOLT-4 leukemia): > 100 µM | TGI (NCI-H226 lung): > 100 µM | TGI (NCI-H23 lung): > 100 µM | TGI (NCI-H522 lung): 74.9 µM | TGI (NCI/ADR-RES ovarian): > 100 µM | TGI (OVCAR-3 ovarian): > 100 µM | TGI (OVCAR-4 ovarian): > 100 µM | TGI (OVCAR-5 ovarian): > 100 µM | TGI (OVCAR-8 ovarian): > 100 µM | TGI (PC-3 prostate): > 100 µM | TGI (RPMI-8226 leukemia): > 100 µM | TGI (RXF 393 renal): > 31.4 µM | TGI (SF-268 CNS): > 100 µM | TGI (SF-295 CNS): > 100 µM | TGI (SK-MEL-2 melanoma): > 100 µM | TGI (SK-MEL-28 melanoma): > 100 µM | TGI (SK-MEL-5 melanoma): > 100 µM | TGI (SK-OV-3 ovarian): > 100 µM | TGI (SN12C renal): > 100 µM | TGI (SNB-19 CNS): > 100 µM | TGI (SNB-75 CNS): > 100 µM | TGI (SR leukemia): > 100 µM | TGI (SW-620 colon): > 100 µM | TGI (T-47D breast): > 100 µM | TGI (TK-10 renal): > 100 µM | TGI (U251 CNS): > 100 µM | TGI (UACC-257 melanoma): > 100 µM | TGI (UO-31 renal): > 100 µM
